Measurements: US5952333A, “Quinazoline derivative” (Zeneca Limited, priority 1995, dated 1999)

How the values were obtained:
[1] = system: human mammary carcinoma which expresses EGF receptor tyrosine kinase; details: athymic nude mice; Toi et al., 1990; cited from earlier work
[2] = biological target: T1, EGF receptor tyrosine kinase (Homo sapiens, UniProt P00533); assay: In vitro inhibition of the enzyme EGF receptor tyrosine kinase (test (a)); format: biochemical; details: approximate value, enzyme partially purified from A431 cells, with EGF, 25° C., 10 minutes
T1 construct: Receptor tyrosine kinase was obtained in partially purified form from A431 cells; endogenous in cells; host or cells: A431 cells (human vulval carcinoma); Triton X-100-solubilised membrane fraction
Procedure: (a) An in vitro assay which determines the ability of a test compound to inhibit the enzyme EGF receptor tyrosine kinase. Receptor tyrosine kinase was obtained in partially purified form from A431 cells (derived from human vulval carcinoma) by the procedures described below which are related to those described by Carpenter et al., J. Biol. Chem., 1979, 254,4884, Cohen et al., J. Biol. Chem, 1982, 257, 1523 and by Braun et al., J. Biol. Chem., 1984, 259, 2051.
A-431 cells were grown to confluence using Dulbecco's modified Eagle's medium (DMEM) containing 5% fetal calf serum (FCS). The obtained cells were homogenised in a hypotonic borate/EDTA buffer at pH 10.1. The homogenate was centrifuged at 400 g for 10 minutes at 0-4° C. The supernatant was centrifuged at 25,000 g for 30 minutes at 0-4° C. […]
The test compound/EGF mixture solution (5 μl) was added to the test enzyme solution (10 μl) and the mixture was incubated at 0-4° C. for 30 minutes. […] Radioactivity present in the filter paper was measured using a liquid scintillation counter (Sequence A). […]
Receptor tyrosine kinase inhibition was calculated as follows: [formula]
The extent of inhibition was then determined at a range of concentrations of test compound to give an IC50 value.

[3] = system: human naso-pharyngeal cancer cell line KB; assay: In vitro inhibition of the EGF-stimulated growth of the human naso-pharyngeal cancer cell line KB (test (b)); format: cell-based; details: 72 h, approximate value, KB cells, EGF (10 ng/ml), 3 days, MTT
Procedure: (b) An in vitro assay which determines the ability of a test compound to inhibit the EGF-stimulated growth of the human naso-pharyngeal cancer cell line KB.
KB cells were seeded into wells at a density of 1×10^4 -1.5×10^4 cells per well and grown for 24 hours in DMEM supplemented with 5% FCS (charcoal-stripped). Cell growth was determined after incubation for 3 days by the extent of metabolism of MTT tetrazolium dye to furnish a bluish color. Cell growth was then determined in the presence of EGF (10 ng/ml) or in the presence of EGF (10 ng/ml) and a test compound at a range of concentrations. An IC50 value could then be calculated.

[4] = system: xenografts of the human vulval epidermoid carcinoma cell line A431; assay: In vivo inhibition of growth of A431 xenografts in athymic nude mice (test (c)); parameters: species or system athymic nude mice (strain ONU:Alpk); human tumour; details: approximate, daily dose of 50 mg/kg, usually orally, once daily, usually 13 days, relative to untreated controls
Procedure: (c) An in-vivo assay in a group of athymic nude mice (strain ONU:Alpk) which determines the ability of a test compound (usually administered orally as a ball-milled suspension in 0.5% polysorbate) to inhibit the growth of xenografts of the human vulval epidermoid carcinoma cell line A431. A431 cells were maintained in culture in DMEM supplemented with 5% FCS and 2 mM glutamine. Freshly cultured cells were harvested by trvpsinization and injected subcutaneously (10 million cells/0.1 ml/mouse) into both flanks of a number of donor nude mice. When sufficient tumour material was available (after approximately 9 to 14 days), fragments of tumour tissue were transplanted in the flanks of recipient nude mice (test day 0). Generally, on the seventh day after transplantation (test day 7) groups of 7 to 10 mice with similar-sized tumours were selected and dosing of the test compound was commenced. Once daily dosing of test compound was continued for a total of 13 days (test days 7 to 19 inclusive). In some studies the dosing of the test compound was continued beyond test day 19, for example to test day 26. In each case. on the following test day the animals were killed and the final tumour volume was calculated from measurements of the length and width of the tumours. Results were calculated as a percentage inhibition of tumour volume relative to untreated controls.

T1 sequence (P00533 25-1210): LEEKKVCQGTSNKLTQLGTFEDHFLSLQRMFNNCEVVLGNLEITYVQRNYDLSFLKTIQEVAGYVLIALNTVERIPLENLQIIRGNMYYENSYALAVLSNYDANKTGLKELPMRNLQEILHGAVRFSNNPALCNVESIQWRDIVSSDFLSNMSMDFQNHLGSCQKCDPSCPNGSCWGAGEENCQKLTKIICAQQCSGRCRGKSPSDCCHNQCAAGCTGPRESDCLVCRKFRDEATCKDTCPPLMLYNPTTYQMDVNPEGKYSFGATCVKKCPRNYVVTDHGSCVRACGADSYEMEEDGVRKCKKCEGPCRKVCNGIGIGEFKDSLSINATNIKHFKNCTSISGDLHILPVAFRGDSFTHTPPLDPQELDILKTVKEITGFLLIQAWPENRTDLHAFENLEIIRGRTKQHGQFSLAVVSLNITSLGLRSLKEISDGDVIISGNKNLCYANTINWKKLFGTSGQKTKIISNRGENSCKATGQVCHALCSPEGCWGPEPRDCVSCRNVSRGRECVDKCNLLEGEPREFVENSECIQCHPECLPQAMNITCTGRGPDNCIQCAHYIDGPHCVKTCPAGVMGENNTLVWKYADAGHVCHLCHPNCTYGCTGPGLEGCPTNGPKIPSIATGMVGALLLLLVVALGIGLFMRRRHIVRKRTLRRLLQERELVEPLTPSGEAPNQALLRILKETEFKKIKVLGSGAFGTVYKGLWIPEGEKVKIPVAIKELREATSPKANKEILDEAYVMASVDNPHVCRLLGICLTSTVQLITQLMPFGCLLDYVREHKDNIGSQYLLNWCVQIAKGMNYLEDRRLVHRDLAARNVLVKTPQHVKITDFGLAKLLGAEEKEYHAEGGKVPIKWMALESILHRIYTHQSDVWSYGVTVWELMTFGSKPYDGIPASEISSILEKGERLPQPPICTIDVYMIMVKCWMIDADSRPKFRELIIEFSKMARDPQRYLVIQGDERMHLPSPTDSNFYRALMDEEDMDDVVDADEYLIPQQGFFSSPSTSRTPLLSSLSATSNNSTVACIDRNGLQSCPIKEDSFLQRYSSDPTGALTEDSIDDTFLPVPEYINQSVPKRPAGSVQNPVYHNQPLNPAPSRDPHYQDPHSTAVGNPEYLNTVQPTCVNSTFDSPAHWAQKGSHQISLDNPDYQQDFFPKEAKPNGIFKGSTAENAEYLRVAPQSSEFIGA

| IC50 [2] | IC50 [3] | Structure (SMILES) | growth of transplanted human mammary carcinoma which expresses EGF receptor tyrosine kinase [1] | inhibition of tumour volume [4] |
| --- | --- | --- | --- | --- |
| – | – | O=CN/C=C/c1cc(O)ccc1O [erbstatin] | specifically attenuates the growth | – |
| ~10 nM | ~200 nM | COCCNc1cc2c(Nc3cccc(C)c3)ncnc2cc1OC [compound of the invention, 6-(2-methoxyethylamino)-7-methoxy-4-(3'-methylanilino)quinazoline] | – | ~50% |
